Values quoted from earlier work, collected in patent US20030100493A1, “Sublingual use of inhibitors in the biosynthesis of cholesterol” (priority 2001, published 2003).

Tests used:
[1] = in vivo
[2] = test system: cholesterol synthesis; conditions: compared with the other statins
[3] = sublingual; coronary patient

| passage of the blood brain barrier [1] | SMILES | other results |
| --- | --- | --- |
| do not pass the blood brain barrier | CC(C)n1c(/C=C/C(O)CC(O)CC(=O)O)c(-c2ccc(F)cc2)c2ccccc21 (stereo not shown) [Fluvastatin] | – |
| – | CC(C)c1nc(N(C)S(C)(=O)=O)nc(-c2ccc(F)cc2)c1/C=C/[C@@H](O)C[C@@H](O)CC(=O)O [Rosuvastatin] | potency as an inhibitor of cholesterol synthesis [2]: significantly higher potency |
| do not pass the blood brain barrier | CC[C@H](C)C(=O)O[C@H]1C[C@H](O)C=C2C=C[C@H](C)[C@H](CC[C@@H](O)C[C@@H](O)CC(=O)O)[C@H]21 [Pravastatin] | – |
| – | O=[N+]([O-])OCC(CO[N+](=O)[O-])O[N+](=O)[O-] [Nitroglycerin] | duration of effect (short lasting effect) [3]: five to ten |
